Test results reported in publication PMC3723128 (Journal of medicinal chemistry, 2013).

Legend:
Type in all cases: biochemical
[1] = biological target: recombinant pjDHFR (Pneumocystis jirovecii, UniProt Q9UUP5); test: Inhibition of recombinant pjDHFR
[2] = biological target: T1, recombinant hDHFR (Homo sapiens, UniProt P00374); test: Inhibition of recombinant hDHFR; conditions: compared to unsubstituted phenyl compound 4
T1 sequence (P00374 1-187): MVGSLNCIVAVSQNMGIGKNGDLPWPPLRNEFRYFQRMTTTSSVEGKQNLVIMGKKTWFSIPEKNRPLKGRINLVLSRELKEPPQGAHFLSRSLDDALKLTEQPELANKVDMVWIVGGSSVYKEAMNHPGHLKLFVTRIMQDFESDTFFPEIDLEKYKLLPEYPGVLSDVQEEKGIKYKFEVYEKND

[3] = biological target: T2, maDHFR (Mycobacterium avium, UniProt O30463); test: Inhibition of maDHFR
T2 sequence (O30463 1-181): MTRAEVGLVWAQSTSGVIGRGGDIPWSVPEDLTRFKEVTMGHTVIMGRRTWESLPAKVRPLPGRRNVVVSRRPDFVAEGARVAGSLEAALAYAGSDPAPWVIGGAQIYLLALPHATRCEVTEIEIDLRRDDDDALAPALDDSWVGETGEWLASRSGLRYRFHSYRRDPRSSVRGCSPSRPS

Question: Which h/pj selectivity ratio ([1]; IC50 hDHFR / IC50 pjDHFR) does the source give for `COc1cc(Nc2cnc3nc(N)nc(N)c3c2)cc(OC)c1OC` [Compound 8, N^6-(3,4,5-trimethoxyphenyl)pyrido[2,3-d]pyrimidine-2,4,6-triamine] here?
Answer: 12.7

Question: How did the “fold loss in potency against hDHFR” value [2] turn out when `Nc1nc(N)c2cc(Nc3ccc4ccccc4c3)cnc2n1` [Compound 11, N^6-2-naphthylpyrido[2,3-d]pyrimidine-2,4,6-triamine] was run?
Answer: 10 fold

Question: With `Nc1nc(N)c2cc(Nc3cccc4ccccc34)cnc2n1` [Compound 13, N^6-1-naphthylpyrido[2,3-d]pyrimidine-2,4,6-triamine] as the compound, how does the “fold loss in potency against hDHFR” value [2] read?
Answer: 10 fold

Question: How did the “fold more potent than TMP against pjDHFR” value [1] turn out when `CN(c1ccccc1)c1cnc2nc(N)nc(N)c2c1` [Compound 16, N^6-methyl-N^6-phenylpyrido[2,3-d]pyrimidine-2,4,6-triamine] was run?
Answer: about 50 fold

Question: How did the “inhibitory potency against maDHFR” value [3] turn out when `COc1cc(N(C)c2cnc3nc(N)nc(N)c3c2)cc(OC)c1OC` [Compound 20, N^6-methyl-N^6-(3,4,5-trimethoxyphenyl)pyrido[2,3-d]pyrimidine-2,4,6-triamine] was run?
Answer: subnanomolar

Question: `CN(c1cnc2nc(N)nc(N)c2c1)c1cccc2ccccc12` [Compound 24, N^6-methyl-N^6-1-naphthylpyrido[2,3-d]pyrimidine-2,4,6-triamine] was tested. Which rl/ma selectivity ratio ([3]; IC50 rlDHFR / IC50 maDHFR) did it give?
Answer: 10.3

Question: How did the “fold more selective for pjDHFR than PTX” value [1] turn out when `CN(c1cc(F)c(F)c(F)c1)c1cnc2nc(N)nc(N)c2c1` [Compound 26, N^6-methyl-N^6-(3,4,5-trifluorophenyl)pyrido[2,3-d]pyrimidine-2,4,6-triamine] was run?
Answer: 18 fold

Question: And the “fold difference in potency for pjDHFR made by the N9-Me moiety” value ([1]; pairs 16/4 and 26/15, from IC50 values in Table 5)?
Answer: ~200 fold
